This is an account of results in PMC12649575, “Assessment of Polymyxin B with Sodium Deoxycholate Sulfate Micelles in a Rat Model to Combat Polymyxin Nephrotoxicity” (Antibiotics, 2025).

The subject of one data set is rat kidney function. The data set can be described thus: Kidney function: serum BUN and creatinine after 7 days of treatment. The conditions noted are these: after 7 days of 6 mg/kg/day s.c., autoanalyzer, mean ± SD; for Serum creatinine (Cr): n = 5, normal saline 2.08 ± 1.08; for Serum blood urea nitrogen (BUN): n = 5, normal saline 13.8 ± 1.3. It is filed as in vivo. The protocol: After seven days of treatment, the serum levels of blood urea nitrogen (BUN) and Cr were assessed in the rats to investigate their kidney function. […] The PMB group had slightly elevated Cr levels (2.28 ± 0.31 mg/dL) (Figure 2B).
(§1) The nephrotoxicity experiment of the PMB formulation was performed on 36 male rats that were randomly divided into four groups (n = 9). Randomization was performed using computer-generated random sequences in Microsoft Excel with a fixed seed value to ensure reproducibility. Block randomization was used to balance the number of animals per group. […] The PMB dose of 6 mg/kg/day (expressed as PMB equivalent) was selected based on previous pharmacokinetic and toxicity studies in rats, where this dose consistently produced measurable nephrotoxicity without lethality. […] The average weight gain of each group was recorded for the experiment. We randomized the treatment order and controlled the timing of measurements, and all researchers involved in the study were blinded to the intervention. The animals were euthanized 24 h after the last treatment with an intraperitoneal lethal dose of sodium pentobarbital (200 mg/kg). Blood samples were collected by cardiac puncture, and the serum was separated by centrifugation (3000× g for 15 min) and stored at −80 °C until assayed. Samples of the kidney, liver, spleen, lung, and heart tissues were carefully collected, weighed, and sectioned for histopathological analysis. Histological observation was performed to assess potential tissue damage and evaluate the extent of toxicity following the treatment.
(§2) The serum levels of SOD and CAT were measured after the 7-day treatment period to investigate the oxidative properties of the treatments. The measurements were carried out using commercial kits according to the manufacturer’s instructions.

Data set [1] deals with male Sprague-Dawley rats. As to the kind of experiment: Serum oxidative stress biomarkers SOD and CAT after 7 days of treatment. It is filed as in vivo. The conditions noted are these: rat serum, after 7 days of 6 mg/kg/day s.c., commercial kit, mean ± SD, n = 5; for Serum catalase (CAT) level: control 22.4 ± 3.79; for Serum superoxide dismutase (SOD) level: normal saline 37.36 ± 3.4. As for the experimental part: The serum levels of superoxide dismutase (SOD) and Catalase (CAT) in rats were analyzed to evaluate and compare the oxidative stress induced by the treatments. […] No significant reductions were detected in the serum SOD levels of the SDCS (38 ± 3.17 U/mL) and formulation (34.73 ± 5.17 U/mL) groups. […] The serum CAT levels in the treated rats followed a trend similar to that observed for the SOD levels (Figure 2D).
as §1, §2

Data set [2] relates to rat kidney, liver, lung and spleen tissue. As to the kind of experiment: Histopathological examination (H&E) of kidney, liver, lung and spleen. It is filed as in vivo. The note with it: 7 days of 6 mg/kg/day s.c., result in words. As for the experimental part:
An H&E assay was performed on the collected tissues of all animals to evaluate PMB-induced nephrotoxicity and organ damage. The kidney histopathological results from the H&E assay of the renal cortex and medulla in the treated animals are shown in Figure 3.
Liver histopathological alterations in the central vein area and portal triad area of the treated rats are shown in Figure 4A and Figure 4B, respectively.
Histopathological alterations in the spleen tissue of the treated animals were also examined (Figure 4D).
as §1
Excess fat from the kidney, liver, spleen, lung, and heart tissues was removed through dissection and trimming. All samples were preserved in 10% buffered formalin using a fixative volume at least 10 times the tissue volume for three days. Subsequently, the tissues were dehydrated through a graded series of ethanol (70%, 80%, 95%, and 100%) using a tissue processor (LEICA TP 1020, Leica Microsystems GmbH, Wetzlar, Germany), with each concentration step lasting for 60 min. Following this, the tissues were embedded in Paraplast blocks using a tissue embedder (LEICA EG 1160, Leica Microsystems GmbH, Wetzlar, Germany). Thin sections that measured 5 μm in thickness were obtained using an automatic microtome. The slides were stained with Harris’ hematoxylin and eosin (H&E) and examined under an Olympus DP73 microscope (Olympus, Tokyo, Japan) equipped with cellSens software version 6.1.4.2. Histopathological analysis was performed by an investigator who was blinded to the treatment groups.

In data set [3] the test system is male Sprague-Dawley rats. The data set can be described thus: Body weight and body weight gain in the 7-day nephrotoxicity study. It is filed as in vivo. The note with it: rat. The protocol:
After seven days of treatment with 6 mg/kg of the PMB and PMB formulation, the weight progression of the rats in each group was measured and recorded. All 36 rats successfully acclimated and reached the target body weight of 110 g within the 7-day period. No animals were excluded from the study. The results in Figure 1A show the weight changes measured on day 0, day 4, and day 7 of administration.
The animal study was approved by the Animal Ethics Committee of Prince of Songkla University (Project License No. MHESI 68014/675, Ref. AR042/2024). The animals were housed in a controlled environment with a temperature of 22 ± 2 °C, relative humidity of 50 ± 10%, and a 12/12-h light/dark cycle. They were provided with a standard laboratory rodent diet and water ad libitum. The study was conducted on male outbred Sprague-Dawley rats (5–7 weeks old, 130–170 g) that were obtained from the National Laboratory Animal Center, Mahidol University, Nakorn Pathom, Thailand. The rats were fed the standard feed protocol by the Southern Laboratory Animal Facility, Faculty of Sciences, Prince of Songkla University. Rats were allowed to acclimate for 7 days prior to the experiment.
as §1, with “Blood samples were collected by cardiac puncture, and the serum was separated by centrifugation (3000× g for 15 min) and stored at −80 °C until assayed. Samples of the kidney, liver, spleen, lung, and heart tissues were carefully collected, weighed, and sectioned for histopathological analysis. Histological observation was performed to assess potential tissue damage and evaluate the extent of toxicity following the treatment.” left out

Data set [4] in a line: PMB serum concentration after a single subcutaneous dose (LC-MS). It is filed as in vivo. The conditions noted are these: rat, single 6 mg/kg s.c., 4 h post-dose, PMB after protein precipitation, mean ± SD, n = 4.
Excerpt: (§3) The serum concentrations reported represent the free (unbound) PMB fraction determined after protein precipitation and filtration, which is the pharmacologically active component.
(§4) For the biodistribution study, a sample size of four rats per group was chosen as a preliminary exploratory analysis to determine major organ distribution trends. This sample size was consistent with previous biodistribution studies involving polymyxins and sufficient to identify statistically meaningful differences in renal accumulation [7]. […] PMB concentrations were measured in LC-MS for free (unbound) fraction of serum and tissue homogenates after protein precipitation.
(§5) The PMB was quantified using an LC-MS/ion trap time-of-flight system (Shimadzu, Tokyo, Japan) equipped with a C18 column (2.1 mm id × 150 mm, 2.7 µm particle size; Thermo Fisher Scientific, Scoresby, Australia). […] A quantity of 400 µL of supernatant was added to 600 µL of the mobile phase. A known amount of standard PMB in blank serum was prepared using the same method to produce a calibration curve of PMB and quantification was performed using colistin sulfate (1 µg/mL) as the internal standard. The monitored mass transitions were m/z 602.4 → 101.1 for PMB and m/z 585.5 → 101.1 for colistin. […]
Data set [5] is described as follows: PMB biodistribution in organs 24 h after subcutaneous dose (LC-MS). It is filed as in vivo. The note with it: rat, 6 mg/kg s.c., kidney homogenate 24 h post-dose, mean ± SD, n = 4.
Excerpt: as §3, §4, §5
For data set [6] the following is noted: cited from earlier work. From the text: Nephrotoxicity remains a significant challenge for PMB. The prevalence of nephrotoxicity ranges from 10% to 60% despite the effectiveness of PMB in treating multidrug-resistant Gram-negative bacterial infections. The amphipathic properties of polymyxins are also responsible for their nephrotoxicity where the cationic diaminobutyric acid (Dab) residues of PMB interact with anionic phospholipids (e.g., phosphatidylinositol, cardiolipin) on the membranes of renal tubular cells. This electrostatic interaction, combined with the insertion of the lipophilic tail into the lipid bilayer, dis ... || PMB undergoes extensive reabsorption in the renal tubule, and a very high concentration of PMB is found in human renal tubular cells compared to the extracellular concentration. The increased accumulation of PMB leads to cell swelling and lysis by disrupting the permeability of the renal tubular epithelial cell membrane. In our results, the administration of the PMB formulation increased the serum concentration profile of PMB.

In the case of Sodium Deoxycholate sulfate [SDCS], in the data set on rat kidney function, the “Serum creatinine (Cr)” value was found to be 2.06 ± 0.32 mg/dL and the “Serum blood urea nitrogen (BUN)” value is given as 14.4 ± 2.07 mg/dL. In the data set on male Sprague-Dawley rats [1], the “Serum catalase (CAT) level” value worked out at 22.25 ± 6.38 nmol/min/mL and the “Serum superoxide dismutase (SOD) level” value is given as 38 ± 3.17 U/mL. In addition, in data set [2], the “Kidney histopathology (renal cortex and medulla)” value is on record as “normal”; the “Liver histopathology (central vein and portal triad area)” value is reported as “normal hepatic tissues”; the Lung histopathology result was “normal lung tissue”; the Spleen histopathology result is “normal white and red pulp”.
Take Polymyxin B [PMB]: the “Body weight gain compared with control” value with male Sprague-Dawley rats [3] (6 mg/kg/day s.c. for 7 days, n = 9, result in words) is “significant reduction in body weight gain”. Further, in the data set on male Sprague-Dawley rats [3] (6 mg/kg/day s.c., day 4 of 7, mean ± SD, n = 9, normal saline group 180.0 ± 11.83 g), the “Body weight on day 4” value was 163.89 ± 15.37 g. For the same substance, the “Body weight on day 7” value in the data set on male Sprague-Dawley rats [3] (6 mg/kg/day s.c., day 7, mean ± SD, n = 9, normal saline group 207.5 ± 11.62 g) worked out at 191.67 ± 15.83 g. In the data set on rat kidney function, the “Serum creatinine (Cr)” value is 2.28 ± 0.31 mg/dL and the “Serum blood urea nitrogen (BUN)” value was determined as 16.56 ± 1.59 mg/dL. In addition, in the data set on male Sprague-Dawley rats [1], the “Serum catalase (CAT) level” value is on record as 9.5 ± 7.91 nmol/min/mL and the “Serum superoxide dismutase (SOD) level” value came out at 22.87 ± 8.1 U/mL. In data set [2], the “Kidney histopathology (renal cortex and medulla)” value was “Deformation of the glomeruli and congestion of the renal blood vessels”; the “Liver histopathology (central vein and portal triad area)” value is “significant monocyte infiltration accompanied by loss of hepatocyte architecture and the presence of necrotic foci around the blood vessels”; the Lung histopathology entry was “endothelial damage that was evidenced by an increased number of small pulmonary venules containing fibrin thrombi”; the Spleen histopathology entry is “numerous multinucleated giant cells”. Also, in data set [4], the “PMB serum concentration at 4 h” value was found to be 2.94 ± 0.23 µg/mL. Further, in data set [5], the “PMB concentration in the kidneys after 24 h” value is given as 3.73 ± 0.89 µg/g. In addition, in data set [6] (animal models), the Urinary recovery is recorded as less than 5%. Further, in data set [6] (another study), the “PMB kidney/serum concentration ratio” value is given as 18 fold.
